Read-outs that look alike come from different tables or passages of the source.
Assays:
NLRP3 inflammasome = conditions: limited potency, nonspecific; cited from earlier work
NLRP3 [1] = molecular target: T1, NLRP3 (Homo sapiens, UniProt Q96P20); experiment: THP-1 cells pyroptosis assay; assay type: cell-based; design: Seed THP-1 cells (25,000 cells/well) containing 1.0 μg/ml LPS; host or cells: THP-1 cells, LPS-primed, nigericin-stimulated; conditions: LPS 1 μg/ml, nigericin 5 μM, resazurin read-out
T1 sequence (Q96P20 whole entry): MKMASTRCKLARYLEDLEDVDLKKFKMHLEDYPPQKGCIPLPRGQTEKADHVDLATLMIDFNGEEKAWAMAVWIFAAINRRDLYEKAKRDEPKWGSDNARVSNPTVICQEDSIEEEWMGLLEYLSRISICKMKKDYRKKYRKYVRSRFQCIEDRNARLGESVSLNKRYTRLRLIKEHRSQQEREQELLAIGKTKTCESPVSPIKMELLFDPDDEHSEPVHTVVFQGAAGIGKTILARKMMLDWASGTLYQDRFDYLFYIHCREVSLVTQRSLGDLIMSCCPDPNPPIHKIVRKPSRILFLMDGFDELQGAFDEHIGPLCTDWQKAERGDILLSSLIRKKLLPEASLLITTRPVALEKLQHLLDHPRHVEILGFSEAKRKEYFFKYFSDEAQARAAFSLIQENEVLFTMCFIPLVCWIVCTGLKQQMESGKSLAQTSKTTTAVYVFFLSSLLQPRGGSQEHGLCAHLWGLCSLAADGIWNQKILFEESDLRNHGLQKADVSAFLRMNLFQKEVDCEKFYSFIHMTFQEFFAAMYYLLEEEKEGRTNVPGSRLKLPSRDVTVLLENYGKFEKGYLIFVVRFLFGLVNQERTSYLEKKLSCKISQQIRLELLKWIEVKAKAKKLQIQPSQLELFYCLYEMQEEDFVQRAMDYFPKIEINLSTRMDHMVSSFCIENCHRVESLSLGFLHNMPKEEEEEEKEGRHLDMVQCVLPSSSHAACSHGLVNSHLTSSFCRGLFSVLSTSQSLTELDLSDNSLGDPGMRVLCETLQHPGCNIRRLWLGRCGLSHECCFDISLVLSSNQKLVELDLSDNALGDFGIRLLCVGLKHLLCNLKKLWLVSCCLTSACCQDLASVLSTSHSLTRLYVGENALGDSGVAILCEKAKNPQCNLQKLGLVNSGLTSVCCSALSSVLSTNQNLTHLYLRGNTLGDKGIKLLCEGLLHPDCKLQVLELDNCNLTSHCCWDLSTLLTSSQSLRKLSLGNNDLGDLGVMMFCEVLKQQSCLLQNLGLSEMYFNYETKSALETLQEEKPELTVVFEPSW
Summary of the method: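 THP-1 cells (25,000/well) primed with 1 μg/ml LPS in serum-free RPMI, given compound (8-point half-log, 10 μM top, 0.1% DMSO) for 3 hrs, then nigericin 5 μM for 1 hr at 37° C. Viability of remaining cells read by resazurin (100 μM, 1–2 hrs) fluorescence; IC50 from 4-parameter fit.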

NLRP3 [2] = molecular target: T1, NLRP3; experiment: Human whole blood IL1β release assay; assay type: cell-based; design: Plate out 80 μl of whole blood containing 1 μg/ml of LPS; from tissue; host or cells: human whole blood from healthy donors, LPS-primed, nigericin-stimulated; conditions: LPS 1 μg/ml, nigericin 10 μM, IL-1β AlphaLisa, read-out: HWB IC50
Summary of the method: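 Donor Li-heparin whole blood with 1 μg/ml LPS preincubated 3 h at 37 °C with compound (8-point half-log series, 10 μM top; 0.1% DMSO). Nigericin (10 μM final) added for 1 h, then supernatant IL-1β measured by AlphaLISA. IC50 from 4-parameter variable-slope fit.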

[3] = PK protocol (intravenous and oral administration); assay type: in vivo, male Sprague Dawley rats; conditions: male, Sprague Dawley, plasma, rat; for Vd: read-out: Vdss
Procedure: Pharmacokinetic parameters were determined in male Sprague Dawley rats (Charles River, UK, 250-350 g; or Vital River Laboratory Animal Technology Co Ltd, Beijing, China, 7-9 weeks old). Animals were individually housed during the study and maintained under a 12 h light/dark cycle. Animals had free access to food and water except that some orally dosed animals were food deprived overnight prior to the study. For intravenous administration, compounds were formulated as a solution in water or DMSO:PBS [10:90] in 2 mL/kg dosing volume and administered via tail vein. For oral administration, compounds were formulated as a solution in water or DMSO:water [10:90] in 5 mL/kg dosing volume and administered orally.
Serial blood samples (about 120-300 μL) were taken from each animal at each of 8 time-points post dose (0.083, 0.25, 0.5, 1, 2, 4, 8 and 24 h) or at each of 12 time-points post dose (0.03, 0.1, 0.17, 0.25, 0.5, 1, 2, 4, 6, 8, 12 and 24 h) or pre-dose and at each of 9 time-points post dose (0.25, 0.5, 1, 2, 4, 6, 8, 12 and 24 h). Samples were held on ice for no longer than 30 minutes before centrifugation (10,000 rpm (8,385 g) for 3 minutes; or 5,696 rpm (3,000 g) for 15 minutes) for plasma generation. Plasma was frozen on dry ice prior to bioanalysis. PK parameters were generated from LC-MS/MS data using Dotmatics or Phoenix WinNonlin 6.3 software.

Row | Structure (SMILES) | NLRP3 inhibition (potency in words) (NLRP3 inflammasome) | IC50 (NLRP3 [1]) | IC50 (NLRP3 [2]) | AUC ([3]; intravenous, dose 1 mg/kg) | clearance ([3]; intravenous, dose 1 mg/kg) | half-life ([3]; intravenous, dose 1 mg/kg) | Vd ([3]; intravenous, dose 1 mg/kg) | AUC ([3]; oral, dose 3 mg/kg) | CL/F ([3]; oral, dose 3 mg/kg) | Cmax ([3]; oral, dose 3 mg/kg) | Tmax ([3]; oral, dose 3 mg/kg) | bioavailability ([3]; oral, dose 3 mg/kg) | half-life ([3]; oral, dose 3 mg/kg) | AUC ([3]; intravenous, dose 2.99 mg/kg) | clearance ([3]; intravenous, dose 2.99 mg/kg) | half-life ([3]; intravenous, dose 2.99 mg/kg) | Vd ([3]; intravenous, dose 2.99 mg/kg)
1 | O=[N+]([O-])C=Cc1ccc2c(c1)OCO2 [3,4-methylenedioxy-β-nitrostyrene] | weak | – | – | – | – | – | – | – | – | – | – | – | – | – | – | – | –
2 | C[S+](C)[O-] [dimethyl sulfoxide (DMSO), dimethyl sulfoxide] | weak | – | – | – | – | – | – | – | – | – | – | – | – | – | – | – | –
3 | C[C@H](CO)n1ccc(S(=O)(=O)NC(=O)Nc2c3c(cc4c2CCC4)CCC3)n1 [Example 13, (R)—N-((1,2,3,5,6,7-Hexahydro-s-indacen-4-yl)carbamoyl)-1-(1-hydroxypropan-2-yl)-1H-pyrazole-3-sulfonamide] | – | 160 to 640 nM | < 400 nM | 38700 ng·h/mL | 0.4 mL/min/kg | 216 min | 0.09 L/kg | – | – | – | – | – | – | – | – | – | –
4 | C[C@@H](O)Cn1ccc(S(=O)(=O)NC(=O)Nc2c3c(cc4c2CCC4)CCC3)n1 [Example 16, (R)—N-((1,2,3,5,6,7-Hexahydro-s-indacen-4-yl)carbamoyl)-1-(2-hydroxypropyl)-1H-pyrazole-3-sulfonamide] | – | 40 to 160 nM | 400 to 800 nM | 10200 ng·h/mL | 1.8 mL/min/kg | 228 min | 0.41 L/kg | 19600 ng·h/mL | 2.6 mL/min/kg | 3960 ng/mL | 49.8 min | 63.8% | 192 min | – | – | – | –
5 | COCCN(C)C(=O)c1cc(S(=O)(=O)NC(=O)Nc2c3c(cc4c2CCC4)CCC3)nn1C [Example 73, 3-(N-((1,2,3,5,6,7-Hexahydro-s-indacen-4-yl)carbamoyl)sulfamoyl)-N-(2-methoxyethyl)-N,1-dimethyl-1H-pyrazole-5-carboxamide] | – | 40 to 160 nM | 400 to 800 nM | 1160 ng·h/mL | 14.4 mL/min/kg | 174 min | 2.24 L/kg | 2420 ng·h/mL | – | 701 ng/mL | – | – | – | – | – | – | –
6 | CC(O)C(C)n1ccc(S(=O)(=O)NC(=O)Nc2c3c(cc4c2CCC4)CCC3)n1 (racemic) [Example 23, N-((1,2,3,5,6,7-Hexahydro-s-indacen-4-yl)carbamoyl)-1-(3-hydroxybutan-2-yl)-1H-pyrazole-3-sulfonamide] | – | 40 to 160 nM | < 400 nM | 20100 ng·h/mL | 0.8 mL/min/kg | 156 min | 0.12 L/kg | – | – | – | – | – | – | – | – | – | –
7 | CCn1nc(S(=O)(=O)NC(=O)Nc2c3c(cc4c2CCC4)CCC3)cc1C1(OC)COC1 [Example 45, 1-Ethyl-N-((1,2,3,5,6,7-hexahydro-s-indacen-4-yl)carbamoyl)-5-(3-methoxyoxetan-3-yl)-1H-pyrazole-3-sulfonamide] | – | < 40 nM | < 400 nM | – | – | – | – | – | – | – | – | – | – | 2320 ng·h/mL | 21.6 mL/min/kg | 48 min | 1.11 L/kg
8 | CC(C)(O)Cn1ccc(S(=O)(=O)NC(=O)Nc2c3c(cc4c2CCC4)CCC3)n1 [Example 10, N-((1,2,3,5,6,7-Hexahydro-s-indacen-4-yl)carbamoyl)-1-(2-hydroxy-2-methylpropyl)-1H-pyrazole-3-sulfonamide] | – | 40 to 160 nM | 400 to 800 nM | 4290 ng·h/mL | 3.9 mL/min/kg | 174 min | 0.61 L/kg | 9660 ng·h/mL | 5.2 mL/min/kg | 1770 ng/mL | 17.4 min | 75% | 210 min | – | – | – | –
9 | COCCn1ccc(S(=O)(=O)NC(=O)Nc2c3c(cc4c2CCC4)CCC3)n1 [Example 2, N-((1,2,3,5,6,7-Hexahydro-s-indacen-4-yl)carbamoyl)-1-(2-methoxyethyl)-1H-pyrazole-3-sulfonamide] | – | 160 to 640 nM | 800 to 1600 nM | 1030 ng·h/mL | 16.2 mL/min/kg | 18 min | 0.3 L/kg | – | – | – | – | – | – | – | – | – | –

Reference: US12012392B2, “Sulfonamide carboxamide compounds” (Inflazome Limited, priority 2017, dated 2024)
